Assay results: US20080261811A1, “Synergistic Mixtures Exhibiting Insecticidal and Fungicidal Action” (Bayer CropScience AG, priority 2004, published 2008)

What was measured:
Myzus persicae = Myzus persicae test (cabbage leaf dip); type: in vivo; settings: for Kill in % after 1 day: Table A1; for Kill in % after 6 days: Table A2
Excerpt: (§1) The expected activity for a given combination of two active compounds can be calculated (cf. COLBY, S. R.; “Calculating Synergistic and Antagonistic Responses of Herbicide Combinations”, Weeds 15, pages 20-22, 1967):
(§2) if • X=the kill rate, expressed in % of the untreated control, when employing active compound A at an application rate of m ppm, • Y=the kill rate, expressed in % of the untreated control, when employing active compound B at an application rate of n ppm, • E=the kill rate, expressed in % of the untreated control, when employing active compounds A and B at application rates of m and n ppm, then
(§3) If the actual insecticidal kill rate is higher than the calculated one, the kill rates of the combination are superadditive, i.e. a synergistic effect is present. In this case, the kill rate that is actually observed has to be higher than the value, calculated using the formula above, for the expected kill rate (E).
(§4) To produce a suitable preparation of active compound, 1 part by weight of active compound is mixed with the stated amounts of solvent and emulsifier, and the concentrate is diluted with emulsifier-containing water to the desired concentration.
Cabbage leaves (Brassica oleracea) which are heavily infested by the green peach aphid (Myzus persicae) are treated by being dipped into the preparation of active compound of the desired concentration.
After the desired period of time, the kill in % is determined. 100% means that all aphids have been killed; 0% means that none of the aphids have been killed. The determined kill rates are entered into Colby's formula.

Phaedon cochleariae = Phaedon cochleariae larvae test (cabbage leaf dip); type: in vivo; settings: for Kill in % after 4 days: Table B1; for Kill in % after 6 days: Table B2
Excerpt: as §1, §2, §3, §4
Cabbage leaves (Brassica oleracea) are treated by being dipped into the preparation of active compound of the desired concentration and populated with larvae of the mustard beetle (Phaedon cochleariae) while the leaves are still moist.
After the desired period of time, the kill in % is determined. 100% means that all beetle larvae have been killed; 0% means that none of the beetle larvae have been killed. The determined kill rates are entered into Colby's formula.

## COCC(=O)N(c1c(C)cccc1C)[C@H](C)C(=O)OC [metalaxyl M]
Myzus persicae; 500 ppm
  Kill in % after 1 day: 0%
Phaedon cochleariae; 500 ppm
  Kill in % after 4 days: 0%

## CN/C(=N\[N+](=O)[O-])NCc1cnc(Cl)s1 [clothianidin]
Myzus persicae; 0.8 ppm
  Kill in % after 1 day: 45%
  Kill in % after 6 days: 35%
Phaedon cochleariae; 4 ppm
  Kill in % after 4 days: 40%
  Kill in % after 6 days: 60%

## COC(=O)C(C)N(C(=O)Cc1ccccc1)c1c(C)cccc1C (stereo not shown) [benalaxyl]
Phaedon cochleariae; 500 ppm
  Kill in % after 6 days: 0%

## COCC(=O)N(c1c(C)cccc1C)C(C)C(=O)OC (stereo not shown) [metalaxyl]
Myzus persicae; 500 ppm
  Kill in % after 1 day: 0%

## COC(=O)[C@@H](C)N(C(=O)Cc1ccccc1)c1c(C)cccc1C [benalaxyl M, methyl N-(phenylacetyl)-N-(2,6-xylyl)-D-alaninate]
Myzus persicae; 500 ppm
  Kill in % after 6 days: 0%
Phaedon cochleariae; 500 ppm
  Kill in % after 6 days: 0%
